Entries after “also recorded” stand apart in the source; their conditions may differ. One block for each compound: values may come before it.
Tests used:
human GLUT1 = biological target: T1, human GLUT1 (Homo sapiens, UniProt P11166); assay: entrance counter-flow transport assay, GLUT1-mediated glucose transport in proteoliposomes; format: biochemical; conditions: for inhibition of GLUT1 glucose transport activity: 20 mM
T1 construct: Full length DNA was subcloned into pFastBac1 (Life Technologies) vector with a N-terminal hexahistidine tag; hexahistidine (thrombin-cleavable) (N, cleaved yes); made in house; host or cells: Sf21 insect cells (baculovirus, pFastBac1)
T1 sequence (P11166 1-492): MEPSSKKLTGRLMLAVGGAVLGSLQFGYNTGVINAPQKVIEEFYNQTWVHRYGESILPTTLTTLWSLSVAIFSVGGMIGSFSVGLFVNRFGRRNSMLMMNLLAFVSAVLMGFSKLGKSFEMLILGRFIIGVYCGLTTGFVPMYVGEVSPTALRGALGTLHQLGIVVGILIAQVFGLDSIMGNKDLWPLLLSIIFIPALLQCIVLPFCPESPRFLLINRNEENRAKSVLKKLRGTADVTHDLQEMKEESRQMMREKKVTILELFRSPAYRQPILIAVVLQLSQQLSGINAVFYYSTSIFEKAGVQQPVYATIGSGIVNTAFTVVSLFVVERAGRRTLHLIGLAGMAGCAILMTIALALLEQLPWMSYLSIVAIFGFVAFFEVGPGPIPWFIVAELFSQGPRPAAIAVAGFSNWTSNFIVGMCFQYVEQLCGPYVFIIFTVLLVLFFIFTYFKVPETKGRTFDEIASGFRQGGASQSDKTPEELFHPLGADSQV
Experimental: Human GLUT1 and GLUT5 were expressed recombinantly in insect cell culture. The purified proteins were reconstituted into proteoliposomes. To measure the inhibition of GLUT1 or GLUT5 transport activity we used entrance counter-flow transport assay. In GLUT1 and GLUT5 proteoliposomes, substrate transport reached steady state after one minute incubation at room temperature.
(§1) Proteoliposomes were generated according to the protocol from[30] with minor modifications. Liposomes were produced from a 95/5% (w/w) mix of soy phosphatidylcholine and cholesterol (Avanti Polar Lipids). Briefly, hexane-washed and vacuum-dried lipids were resuspended to 20 mg/ml in 100 mM KPi (pH 7.5), and then subjected to 11 freeze-and-thaw cycles in liquid nitrogen and room temperature water. The lipid mixture was extruded through a 0.1 μm polycarbonate filter. Prepared liposomes were destabilized with 4 mM Triton X-100 and mixed with purified protein in a 100:1 (w/w) ratio in 100 mM KPi (pH 7.5) 20% (v/v) glycerol, 200 mM (glucose or fructose). Detergent was removed by several additions of SM2 BioBeads (BioRad) and incubated overnight at 4 °C. After filtering out the BioBeads, proteoliposomes were diluted with 100 mM KPi (pH 7.5) 200 mM (glucose or fructose), and then collected by ultracentrifugation, at 200,000 × g and 4 °C, for 1 hour. The proteoliposomes pellet was resuspended in the above buffer so that O.D.600nm was ~30.
To measure hexose transport, we utilized entrance counter-flow assay. Transport was performed in a volume of 100 μL of 100 mM KPi (pH 7.5) buffer containing radioactive ^14C-hexose (4 μM fructose or 5 μM glucose) with inhibitors added before initiation of transport. Radioactive substrate uptake in GLUT1 and GLUT5 (wild-type or mutant) proteoliposomes was constant between 1 and 2 mins. The reaction was started by the addition of 3 μL concentrated proteoliposomes to the above solution and incubated at room temperature; the transport was stopped after one minute by addition of ice-chilled quench buffer [100 mM KPi (pH 5.5) and 100 mM LiCl]. The solution was filtered through a 0.4 μm pore size cellulose nitrate membrane filter (Whatman), and the filter was washed three times with quench buffer. The membrane filter was placed into a vial filled with BioSafe II scintillation liquid (Research Products International Corp.), and radioactivity was quantified with LS 6500 scintillation counter (Beckman). […] The transport assays were unaffected by 5% DMSO. Data is presented as relative activity normalized to radioactivity of no inhibitor added as 100% and empty proteoliposomes as 0%. Kinetic parameters were fitted by nonlinear algorithm plots using Prism (GraphPad Software).

human GLUT5 = biological target: T2, human GLUT5 (Homo sapiens, UniProt P22732); assay: entrance counter-flow transport assay, GLUT5-mediated fructose transport in proteoliposomes; format: biochemical; conditions: added at 20 mM
T2 construct: Full length DNA was subcloned into pFastBac1 (Life Technologies) vector with a N-terminal hexahistidine tag; hexahistidine (thrombin-cleavable) (N, cleaved yes); made in house; host or cells: Sf21 insect cells (baculovirus, pFastBac1)
T2 sequence (P22732 1-501): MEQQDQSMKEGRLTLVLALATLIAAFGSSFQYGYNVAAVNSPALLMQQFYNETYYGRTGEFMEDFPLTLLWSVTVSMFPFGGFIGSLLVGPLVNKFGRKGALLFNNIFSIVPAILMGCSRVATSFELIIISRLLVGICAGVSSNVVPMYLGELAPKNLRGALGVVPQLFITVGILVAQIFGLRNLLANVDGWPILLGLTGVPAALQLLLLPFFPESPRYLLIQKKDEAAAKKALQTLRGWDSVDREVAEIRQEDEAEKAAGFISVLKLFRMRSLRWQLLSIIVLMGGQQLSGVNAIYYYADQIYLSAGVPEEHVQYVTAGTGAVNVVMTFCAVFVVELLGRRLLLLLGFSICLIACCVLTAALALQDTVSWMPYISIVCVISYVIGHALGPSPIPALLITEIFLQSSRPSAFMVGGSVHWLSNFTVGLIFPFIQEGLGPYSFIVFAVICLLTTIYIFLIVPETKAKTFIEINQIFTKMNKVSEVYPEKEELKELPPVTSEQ
From the text: Human GLUT1 and GLUT5 were expressed recombinantly in insect cell culture. The purified proteins were reconstituted into proteoliposomes. To measure the inhibition of GLUT1 or GLUT5 transport activity we used entrance counter-flow transport assay.
as §1
To measure hexose transport, we utilized entrance counter-flow assay. Transport was performed in a volume of 100 μL of 100 mM KPi (pH 7.5) buffer containing radioactive ^14C-hexose (4 μM fructose or 5 μM glucose) with inhibitors added before initiation of transport. […] The reaction was started by the addition of 3 μL concentrated proteoliposomes to the above solution and incubated at room temperature; the transport was stopped after one minute by addition of ice-chilled quench buffer [100 mM KPi (pH 5.5) and 100 mM LiCl]. The solution was filtered through a 0.4 μm pore size cellulose nitrate membrane filter (Whatman), and the filter was washed three times with quench buffer. The membrane filter was placed into a vial filled with BioSafe II scintillation liquid (Research Products International Corp.), and radioactivity was quantified with LS 6500 scintillation counter (Beckman). […] Data is presented as relative activity normalized to radioactivity of no inhibitor added as 100% and empty proteoliposomes as 0%. Kinetic parameters were fitted by nonlinear algorithm plots using Prism (GraphPad Software).

[1] = parameters: method as in PMID 22133440; conditions: cited from earlier work
human GLUT2 = test system: human GLUT2; parameters: method as in PMID 1716731; conditions: cited from earlier work
GLUT5 [2] = test system: GLUT5; parameters: method as in PMID 9166863; conditions: cited from earlier work
GLUT1 [3] = test system: GLUT1; parameters: method as in PMID 9286080; conditions: cited from earlier work
[4] = test system: glucose/H+ symporter GlcPSe; parameters: method as in PMID 24127585; conditions: cited from earlier work
human GLUT4 = test system: human GLUT4; parameters: method as in PMID 1716731; conditions: cited from earlier work
GLUT5 [5] = test system: GLUT5; parameters: method as in PMID 9166863; conditions: read-out: GLUT5 Km for fructose; cited from earlier work
GLUT1 [6] = conditions: read-out: GLUT1 Km for glucose; cited from earlier work
[7] = parameters: method as in PMID 22133440; conditions: cited from earlier work; remark: listed apart in the source

GLUT1 transport activity (relative glucose transport) (human GLUT1; 20 mM compound): ~ 80%
Compound: OC[C@H]1O[C@H](O[C@H]2[C@H](O)[C@@H](O)C(O)O[C@@H]2CO)[C@H](O)[C@@H](O)[C@@H]1O (mixture of isomers) [maltose]
inhibition of GLUT5 fructose transport activity (human GLUT5): neither maltose nor maltohexaose (6 glucose units) inhibited GLUT5

Compound: O=c1c(O[C@@H]2O[C@H](CO)[C@@H](O)[C@H](O)[C@H]2O)c(-c2ccc(O)cc2)oc2cc(O)cc(O)c12 [astragalin]
solubility in water [1]: insoluble in water | inhibition of GLUT5 fructose transport activity (human GLUT5): neither maltohexaose nor astragalin alone inhibit GLUT5

Compound: C=C1[C@@H](C)[C@H]2[C@H](Cc3ccccc3)NC(=O)[C@]23OC(=O)/C=C/[C@H](O)CCC[C@@H](C)C/C=C/[C@H]3[C@@H]1O [cytochalasin B]
inhibition of human GLUT2 (human GLUT2): inhibit | inhibition of GLUT5 (GLUT5 [2]): not GLUT5 | inhibition of GLUT1 activity (GLUT1 [3]): inhibitors | inhibition of bacterial glucose/H+ symporter GlcPSe [4]: inhibit | inhibition of human GLUT4 (human GLUT4): inhibit

Compound: C=C[C@@]1(C)CC(=O)[C@]2(O)[C@@]3(C)[C@@H](O)CCC(C)(C)[C@@H]3[C@H](O)[C@H](OC(C)=O)[C@@]2(C)O1 [forskolin]
inhibition of human GLUT2 (human GLUT2): inhibit | inhibition of GLUT5 (GLUT5 [2]): not GLUT5 | inhibition of GLUT1 activity (GLUT1 [3]): inhibitors | inhibition of bacterial glucose/H+ symporter GlcPSe [4]: inhibit | inhibition of human GLUT4 (human GLUT4): inhibit

Compound: O=C(CO)[C@@H](O)[C@H](O)[C@H](O)CO [fructose]
Km (GLUT5 [5]): ~10 mM

Compound: OC[C@H]1OC(O)[C@H](O)[C@@H](O)[C@@H]1O (some centres unmarked) [glucose]
Km (GLUT1 [6]): ~3 mM

Compound: Astragalin-6-glucoside [Ast6G]
redox scavenging properties compared to astragalin [7]: increased redox scavenging properties | inhibition of GLUT1 glucose transport activity (human GLUT1): not inhibited; also recorded: did not inhibit

inhibition of GLUT1 glucose transport activity (human GLUT1): not inhibited
Compound: maltohexaose
inhibition of GLUT5 fructose transport activity (human GLUT5): neither maltose nor maltohexaose (6 glucose units) inhibited GLUT5; also recorded: neither maltohexaose nor astragalin alone inhibit GLUT5

Reference: publication PMC4549712, “Inhibition of human GLUT1 and GLUT5 by plant carbohydrate products; insights into transport specificity” (Scientific Reports, 2015)
